Holding throughout (assay): relative viability (nuclei count vs DMSO), 5 days (fraction); higher = more cells survive
Compound in experiment [1]: C[As](C)SC[C@H](NC(=O)CC[C@H](N)C(=O)O)C(=O)NCC(=O)O [Darinaparsin] + C[C@]1(O)C[C@@H](c2nc(-c3ccc4ccc(-c5ccccc5)nc4c3)c3c(N)nccn32)C1 [Linsitinib] (partner 1 µM)
The procedure, abridged: (§1)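 For relative viability, nuclei counts in treated wells were divided by those in vehicle wells. Lung cancer cell lines had been pin-tool dosed in 1536-well plates the day after seeding and cultured for 5 days, then fixed and stained in one step (final 0.05% Triton X-100, 1% formaldehyde, 1 ug/ml Hoechst) and imaged at 4×. Doses were one drug alone or a fixed anchor-drug dose plus five library-drug doses (not always all listed) in √10 steps, and values are duplicate-plate medians.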

Compound in experiment [2]: C[As](C)SC[C@H](NC(=O)CC[C@H](N)C(=O)O)C(=O)NCC(=O)O [Darinaparsin] + Cc1cc(Nc2cc(N3CCN(C)CC3)nc(Sc3ccc(NC(=O)C4CC4)cc3)n2)n[nH]1 [Tozasertib] (partner 0.1 µM)
The procedure, abridged:
as §1

Compound in experiment [3]: C1CC2=C(C1)C=C(C=C2)OC3=NC(=C4C(=N3)N(C=N4)CC5=CC=C(C=C5)C6=CC=CC=C6)N[C@@H](CC7=CC=CC=C7)CO [QS11] + C[C@@H](Oc1cc(-c2cnn(C3CCNCC3)c2)cnc1N)c1c(Cl)ccc(F)c1Cl [Crizotinib] (partner 1 µM)
In outline:
as §1

Compound in experiment [4]: CC1=C(C=C(C=C1)NC(=O)C2=CC(=CC=C2)C(C)(C)C#N)NC3=CC4=C(C=C3)N=CN(C4=O)C [AZ628] + CS(=O)(=O)CCNCc1ccc(-c2ccc3ncnc(Nc4ccc(OCc5cccc(F)c5)c(Cl)c4)c3c2)o1 [Lapatinib] (partner 2 µM)
In outline:
as §1

With EPLC-272H, the relative viability was found to be 1.2 in experiment [1] (first compound 0.08 µM); 1.31 in experiment [1] (first compound 0.8 µM); 0.956 in experiment [1] (first compound 2.53 µM); 1.17 in experiment [1] (first compound 8 µM); 0.308 in experiment [2] (first compound 0.8 µM); 0.229 in experiment [2] (first compound 2.53 µM). The relative viability in experiment [2] (first compound 8 µM) stood at 0.277; in experiment [3] (first compound 0.08 µM), 0.861; in experiment [3] (first compound 0.253 µM) it was 0.962; in experiment [3] (first compound 0.8 µM), 1.03; in experiment [3] (first compound 2.53 µM), 0.835; in experiment [3] (first compound 8 µM), 1.13. Further, the relative viability in experiment [4] (first compound 0.08 µM) is 0.837; in experiment [4] (first compound 0.253 µM), 0.88; in experiment [4] (first compound 0.8 µM), 1.08; in experiment [4] (first compound 2.53 µM) it was 0.932; in experiment [4] (first compound 8 µM) it was 0.54.
For HCC-15, the relative viability is 0.878 in experiment [1] (first compound 0.08 µM); 0.881 in experiment [1] (first compound 0.8 µM); 0.78 in experiment [1] (first compound 2.53 µM); 1.01 in experiment [1] (first compound 8 µM); 0.525 in experiment [2] (first compound 0.08 µM); 0.347 in experiment [2] (first compound 0.8 µM). The relative viability in experiment [2] (first compound 2.53 µM) was 0.298; in experiment [2] (first compound 8 µM), 0.364; in experiment [3] (first compound 0.08 µM), 0.807; in experiment [3] (first compound 0.253 µM) it was 0.927; in experiment [3] (first compound 2.53 µM), 0.803; in experiment [3] (first compound 8 µM), 0.779. The relative viability in experiment [4] (first compound 0.08 µM) is 0.949; in experiment [4] (first compound 0.253 µM) it was 0.808; in experiment [4] (first compound 0.8 µM) it was 0.713; in experiment [4] (first compound 2.53 µM), 0.724; in experiment [4] (first compound 8 µM) it was 0.558.
For COR-L 105, the relative viability in experiment [1] (first compound 0.08 µM) was found to be 0.992; in experiment [1] (first compound 0.8 µM), 0.844; in experiment [1] (first compound 8 µM) it was 0.978; in experiment [2] (first compound 0.08 µM) it was 0.316; in experiment [2] (first compound 0.8 µM) it was 0.369; in experiment [2] (first compound 2.53 µM), 0.315. For the same cell line, the relative viability in experiment [2] (first compound 8 µM) was determined as 0.32; in experiment [3] (first compound 0.08 µM), 1.04; in experiment [3] (first compound 0.253 µM), 0.735; in experiment [3] (first compound 0.8 µM) it was 0.616; in experiment [3] (first compound 2.53 µM), 0.618; in experiment [3] (first compound 8 µM), 0.702. The relative viability in experiment [4] (first compound 0.08 µM) is 0.413; in experiment [4] (first compound 0.253 µM) it was 0.391; in experiment [4] (first compound 0.8 µM) it was 0.366; in experiment [4] (first compound 2.53 µM), 0.32; in experiment [4] (first compound 8 µM) it was 0.4.
Take NCI-H1915: the relative viability was determined as 1.11 in experiment [1] (first compound 0.08 µM); 1.09 in experiment [1] (first compound 0.8 µM); 1.03 in experiment [1] (first compound 2.53 µM); 1.13 in experiment [1] (first compound 8 µM); 0.502 in experiment [2] (first compound 0.08 µM); 0.479 in experiment [2] (first compound 0.8 µM). The relative viability in experiment [2] (first compound 2.53 µM) stood at 0.427; in experiment [2] (first compound 8 µM) it was 0.435; in experiment [3] (first compound 0.08 µM) it was 0.926; in experiment [3] (first compound 0.253 µM), 1.13; in experiment [3] (first compound 2.53 µM), 0.824; in experiment [3] (first compound 8 µM), 0.815. In addition, the relative viability amounted to 1.05 in experiment [4] (first compound 0.08 µM); 1 in experiment [4] (first compound 0.253 µM); 0.83 in experiment [4] (first compound 0.8 µM); 0.653 in experiment [4] (first compound 2.53 µM); 0.704 in experiment [4] (first compound 8 µM).
With NCI-H2347, the relative viability in experiment [1] (first compound 0.08 µM) turned out to be 1; in experiment [1] (first compound 0.8 µM), 0.942; in experiment [1] (first compound 2.53 µM), 0.911; in experiment [1] (first compound 8 µM) it was 1.03; in experiment [2] (first compound 0.08 µM), 0.587; in experiment [2] (first compound 2.53 µM), 0.555. The relative viability in experiment [2] (first compound 8 µM) was determined as 0.469; in experiment [3] (first compound 0.08 µM), 0.683; in experiment [3] (first compound 0.253 µM), 0.645; in experiment [3] (first compound 0.8 µM) it was 0.671; in experiment [3] (first compound 2.53 µM) it was 0.501; in experiment [3] (first compound 8 µM), 0.76. Moreover, the relative viability came out at 0.8 in experiment [4] (first compound 0.08 µM); 0.89 in experiment [4] (first compound 0.253 µM); 0.902 in experiment [4] (first compound 0.8 µM); 0.836 in experiment [4] (first compound 2.53 µM); 0.457 in experiment [4] (first compound 8 µM).
Consider EKVX, for which the relative viability in experiment [1] (first compound 0.08 µM) stood at 1.33; in experiment [1] (first compound 0.8 µM), 0.902; in experiment [1] (first compound 2.53 µM), 0.969; in experiment [1] (first compound 8 µM), 1.2; in experiment [2] (first compound 0.08 µM), 0.431; in experiment [2] (first compound 0.8 µM) it was 0.448. The relative viability in experiment [2] (first compound 2.53 µM) amounted to 0.32; in experiment [2] (first compound 8 µM) it was 0.4; in experiment [3] (first compound 0.08 µM), 1.13; in experiment [3] (first compound 0.253 µM), 1.03; in experiment [3] (first compound 2.53 µM), 0.749; in experiment [3] (first compound 8 µM) it was 1.2. In addition, the relative viability in experiment [4] (first compound 0.08 µM) was 0.232; in experiment [4] (first compound 0.253 µM), 0.206; in experiment [4] (first compound 0.8 µM) it was 0.216; in experiment [4] (first compound 2.53 µM) it was 0.219; in experiment [4] (first compound 8 µM), 0.257.
Turning to LC-2-ad, the relative viability worked out at 0.98 in experiment [1] (first compound 0.08 µM); 0.808 in experiment [1] (first compound 0.8 µM); 0.812 in experiment [1] (first compound 2.53 µM); 0.843 in experiment [1] (first compound 8 µM); 0.49 in experiment [2] (first compound 0.08 µM); 0.425 in experiment [2] (first compound 0.8 µM). Further, the relative viability in experiment [2] (first compound 2.53 µM) came to 0.329; in experiment [2] (first compound 8 µM), 0.35; in experiment [3] (first compound 0.08 µM) it was 0.468; in experiment [3] (first compound 0.253 µM), 0.479; in experiment [3] (first compound 0.8 µM), 0.398; in experiment [3] (first compound 2.53 µM), 0.443. The relative viability in experiment [3] (first compound 8 µM) is 0.495; in experiment [4] (first compound 0.08 µM), 0.949; in experiment [4] (first compound 0.253 µM), 0.867; in experiment [4] (first compound 0.8 µM), 0.446; in experiment [4] (first compound 2.53 µM), 0.72; in experiment [4] (first compound 8 µM) it was 0.474.

(Values after the supplement of paper PMC10307832.)
